Data reported in patent US20160016907A1, “PYRIDINE DERIVATIVES AS MUSCARINIC M1 RECEPTOR POSITIVE ALLOSTERIC MODULATORS” (PFIZER INC., priority 2014, published 2016).

Biological target: T1, human M1 muscarinic acetylcholine receptors (Homo sapiens, UniProt P11229)
T1 sequence (P11229 1-460): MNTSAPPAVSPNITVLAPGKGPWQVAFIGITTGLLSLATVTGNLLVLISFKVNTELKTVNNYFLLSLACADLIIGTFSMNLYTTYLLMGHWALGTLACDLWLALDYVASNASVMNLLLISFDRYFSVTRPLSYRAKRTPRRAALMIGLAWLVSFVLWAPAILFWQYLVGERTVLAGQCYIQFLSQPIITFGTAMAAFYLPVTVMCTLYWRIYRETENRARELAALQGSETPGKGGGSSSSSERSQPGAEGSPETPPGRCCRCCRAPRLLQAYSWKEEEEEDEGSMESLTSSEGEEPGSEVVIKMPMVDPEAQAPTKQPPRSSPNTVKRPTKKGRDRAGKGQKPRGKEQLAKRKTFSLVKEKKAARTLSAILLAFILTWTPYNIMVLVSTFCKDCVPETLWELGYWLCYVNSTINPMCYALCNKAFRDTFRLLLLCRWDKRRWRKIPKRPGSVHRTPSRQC
Test: M1 FLIPR assay (PAM, intracellular calcium)
Type: cell-based
Settings: potentiation of EC10-EC30 acetylcholine, values marked a: geometric mean of ≧7 determinations, read-out: M1 PAM Inflection Point (μM) Geometric mean of 2-6 determinations (unless otherwise indicated)
Method: This assay was designed to select and characterize compounds that affect the activity of human M1 muscarinic acetylcholine receptors (Similar M1 PAM FLIPR assays can be found, for example, at U.S. Pat. No. 8,664,234). Human M1 receptors were stably expressed in Chinese hamster ovary (CHO) cells (HD Bioscience). The effect of test compounds on intracellular calcium was measured on an FLIPR Tetra (Molecular Devices) using the Fluo-8, AM calcium dye (Molecular Probes) with a red dye quenching agent (Sigma).
CHO cells expressing hM1 cells had been previously cultured and frozen in assay ready vials. Cell vials were thawed, then plated at a density of 10,000 cells per well in a 384 well black wall, clear bottom plate (Greiner #781090) and incubated overnight at 37 degrees C. with 5% CO2. Cells were grown and plated in F12 nutrient media (Gibco BRL #21700-075) supplemented with 10% FBS (Hyclone #CH30160.03) and Pen/Strep (Gibco #15070-063).
After overnight incubation, cell plates were removed from the incubator and the growth media was discarded and replaced with loading solution containing the following: 2 μM Fluo-8-AM (Molecular Probes #F14242), 2 mM Probenecid (Sigma #P8761), lx Acid Red 1 (Sigma #210633), in HBSS buffer containing (grams/L): 0.1 CaCl2, 0.1 MgCl2*6H2O, 0.049 MgSO4, 0.4 KCl, 0.06 KH2PO4, 8.06 NaCl, 0.12 Na2HPO4*12H2O, 1.1 D-glucose*H2O, 0.35 NaHCO3, 4.766 HEPES, pH 7.4. The plate was incubated in the loading solution at 37 degrees C. in the dark for 1 hour.
Test compounds were initially prepared as 100% DMSO stock solutions, then transferred and serially diluted in 384-well compound plates (Greiner #784201). Each compound was tested at 10 concentrations in duplicate per experiment. Positive and negative controls for positive allosteric modulator evaluation were 30 μM acetylcholine (Ach) and an EC10-EC30 concentration of acetylcholine, approximately 2 nM but could be adjusted for each experiment to maintain the EC10-EC30 range.
After the 1-hour dye loading incubation, test compounds were added to the cell plate containing Fluo-8. Approximately 10 minutes after compound addition, an EC10-EC30 concentration of acetylcholine was added to each well and the fluorescence measured to determine the PAM potentiation of the compound.
Data was exported from the FLIPR Tetra as maximum fluorescence/minimum fluorescence for each well. The percent effect for each compound well was determined using the mean values for the positive and negative controls on each plate for each read. Percent effect was 100*(compound negative control)/(positive control negative control). Dose response curves were fitted to the compound percent effect data using a 4-parameter logistic fit model to determine PAM (positive allosteric modulator) Inflection Point values. Compounds with inverted U dose response curves had the concentrations greater than the concentration giving the peak response excluded from the fit. Data was reported as Inflection Point. The compounds of Examples 1-72 had activity according to this assay, generally with an Inflection Point (IP) of 10 μM or less (using Inflection Point as a measure of activity). Such a result is indicative of the intrinsic activity of the compounds of the invention as M1 allosteric modulators.

Row | SMILES | EC50 [µM]
1 | CO[C@H]1CCCC[C@@H]1NC(=O)c1cc(Cc2ccc(-n3cccn3)cc2)c(C)cn1 [Example 22, N-[(1S,2S)-2-methoxycyclohexyl]-5-methyl-4-[4-(1H-pyrazol-1-yl)benzyl]pyridine-2-carboxamide] | > 5.99
2 | Cc1nc(-c2ccc(Cc3cc(C(=O)N[C@H]4CCCC[C@@H]4O)ncc3C)cc2)co1 [Example 23, N-[(1S,2S)-2-hydroxycyclohexyl]-5-methyl-4-[4-(2-methyl-1,3-oxazol-4-yl)benzyl]pyridine-2-carboxamide] | 0.363
3 | Cc1cnc(NC(=O)c2cc(Cc3ccc(-n4cccn4)cc3)c(C)cn2)nc1 [Example 24, 5-methyl-N-(5-methylpyrimidin-2-yl)-4-[4-(1H-pyrazol-1-yl)benzyl]pyridine-2-carboxamide] | 4.39
4 | COc1ccc(Cc2cc(C(=O)N[C@H]3CCCC[C@@H]3O)nc(C)c2Cl)cc1 [Example 25, 5-chloro-N-[(1S,2S)-2-hydroxycyclohexyl]-4-(4-methoxybenzyl)-6-methylpyridine-2-carboxamide] | 1.14
5 | Cc1cnc(C(=O)NCC2(O)CCCC2)cc1Cc1ccc(-n2cccn2)cc1 [Example 27, N-[(1-hydroxycyclopentyl)methyl]-5-methyl-4-[4-(1H-pyrazol-1-yl)benzyl]pyridine-2-carboxamide] | 1.55
6 | Cc1noc(CNC(=O)c2cc(Cc3ccc(-n4cccn4)cc3)c(C)cn2)n1 [Example 31, 5-methyl-N-[(3-methyl-1,2,4-oxadiazol-5-yl)methyl]-4-[4-(1H-pyrazol-1-yl)benzyl]pyridine-2-carboxamide] | 8.63
7 | Cc1cnc(C(=O)NCC2CCOCC2)cc1Cc1ccc(-n2cccn2)cc1 [Example 32, 5-methyl-4-[4-(1H-pyrazol-1-yl)benzyl]-N-(tetrahydro-2H-pyran-4-ylmethyl)pyridine-2-carboxamide] | 4.6
8 | Cc1cnc(C(=O)NC[C@H](C)O)cc1Cc1ccc(-n2cccn2)cc1 [Example 36, N-[(2S)-2-hydroxypropyl]-5-methyl-4-[4-(1H-pyrazol-1-yl)benzyl]pyridine-2-carboxamide] | 6.65
9 | Cc1cnc(C(=O)N[C@H](CO)C(C)C)cc1Cc1ccc(-n2cccn2)cc1 [Example 38, N-[(2S)-1-hydroxy-3-methylbutan-2-yl]-5-methyl-4-[4-(1H-pyrazol-1-yl)benzyl]pyridine-2-carboxamide] | 3.63
10 | CC[C@@H](CO)NC(=O)c1cc(Cc2ccc(-n3cccn3)cc2)c(C)cn1 [Example 39, N-[(2S)-1-hydroxybutan-2-yl]-5-methyl-4-[4-(1H-pyrazol-1-yl)benzyl]pyridine-2-carboxamide] | 4.83
11 | Cc1cnc(C(=O)NCC(=O)N(C)C)cc1Cc1ccc(-n2cccn2)cc1 [Example 41, N-[2-(dimethylamino)-2-oxoethyl]-5-methyl-4-[4-(1H-pyrazol-1-yl)benzyl]pyridine-2-carboxamide] | 8.03
12 | Cc1cnc(C(=O)NCc2ccon2)cc1Cc1ccc(-n2cccn2)cc1 [Example 42, 5-methyl-N-(1,2-oxazol-3-ylmethyl)-4-[4-(1H-pyrazol-1-yl)benzyl]pyridine-2-carboxamide] | 8.13
13 | COc1ccc(Cc2cc(C(=O)N[C@H]3CCCC[C@@H]3O)ncc2C)cc1 [Example 50, N-[(1S,2S)-2-hydroxycyclohexyl]-4-(4-methoxybenzyl)-5-methylpyridine-2-carboxamide] | 3.48
14 | Cc1cnc(C(=O)N[C@H]2CCCC[C@@H]2O)cc1Cc1ccc(Cl)nc1 [Example 51, 4-[(6-chloropyridin-3-yl)methyl]-N-[(1S,2S)-2-hydroxycyclohexyl]-5-methylpyridine-2-carboxamide] | 2.83
15 | O=C(N[C@H]1CCOC[C@@H]1O)c1cc(Cc2ccc(-n3cccn3)cc2)c(Cl)cn1 [Example 52, 5-chloro-N-[(3R,4S)-3-hydroxytetrahydro-2H-pyran-4-yl]-4-[4-(1H-pyrazol-1-yl)benzyl]pyridine-2-carboxamide] | 0.187
16 | Cc1c[n+]([O-])c(C(=O)N[C@H]2CCOC[C@@H]2O)cc1Cc1ccc(-n2cccn2)cc1 [Example 53, N-[(3R,4S)-3-hydroxytetrahydro-2H-pyran-4-yl]-5-methyl-4-[4-(1H-pyrazol-1-yl)benzyl]pyridine-2-carboxamide 1-oxide] | 0.271

The remaining lines, values ahead:

Row | EC50 [µM] | SMILES
17 | 5.04 | Cc1cnc(C(=O)N[C@H]2C[C@H](CO)C2)cc1Cc1ccc(-n2cccn2)cc1 [Example 26, N-[trans-3-(hydroxymethyl)cyclobutyl]-5-methyl-4-[4-(1H-pyrazol-1-yl)benzyl]pyridine-2-carboxamide]
18 | 4.77 | Cc1cnc(C(=O)NC2CC3(COC3)C2)cc1Cc1ccc(-n2cccn2)cc1 [Example 28, 5-methyl-N-(2-oxaspiro[3.3]hept-6-yl)-4-[4-(1H-pyrazol-1-yl)benzyl]pyridine-2-carboxamide]
19 | 3.82 | Cc1cnc(C(=O)N[C@H]2CC[C@@H](O)CC2)cc1Cc1ccc(-n2cccn2)cc1 [Example 29, N-(cis-4-hydroxycyclohexyl)-5-methyl-4-[4-(1H-pyrazol-1-yl)benzyl]pyridine-2-carboxamide]
20 | 1.12 | Cc1cnc(C(=O)N[C@H]2C[C@@](C)(O)C2)cc1Cc1ccc(-n2cccn2)cc1 [Example 30]
21 | 3.44 | Cc1cnc(C(=O)NC2CCOCC2)cc1Cc1ccc(-n2cccn2)cc1 [Example 33, 5-methyl-4-[4-(1H-pyrazol-1-yl)benzyl]-N-(tetrahydro-2H-pyran-4-yl)pyridine-2-carboxamide]
22 | 2.73 | Cc1cnc(C(=O)NCC2CCCO2)cc1Cc1ccc(-n2cccn2)cc1 (stereo not shown) [Example 35, 5-methyl-4-[4-(1H-pyrazol-1-yl)benzyl]-N-(tetrahydrofuran-2-ylmethyl)pyridine-2-carboxamide]
23 | 3.56 | Cc1cnc(C(=O)N[C@@H]2CCCCNC2=O)cc1Cc1ccc(-n2cccn2)cc1 [Example 37, 5-methyl-N-[(3R)-2-oxoazepan-3-yl]-4-[4-(1H-pyrazol-1-yl)benzyl]pyridine-2-carboxamide]
24 | 9.64 | Cc1cnc(C(=O)NCC2CC2)cc1Cc1ccc(-n2cccn2)cc1 [Example 40, N-(cyclopropylmethyl)-5-methyl-4-[4-(1H-pyrazol-1-yl)benzyl]pyridine-2-carboxamide]
25 | 9.25 | Cc1cnc(C(=O)NC[C@H]2CCCO2)cc1Cc1ccc(-n2cccn2)cc1 [Example 43, 5-methyl-4-[4-(1H-pyrazol-1-yl)benzyl]-N-[(2R)-tetrahydrofuran-2-ylmethyl]pyridine-2-carboxamide]
26 | 2.7 | Cc1cnc(C(=O)NCC2(O)CCC2)cc1Cc1ccc(-n2cccn2)cc1 [Example 44, N-[(1-hydroxycyclobutyl)methyl]-5-methyl-4-[4-(1H-pyrazol-1-yl)benzyl]pyridine-2-carboxamide]
27 | 7.21 | Cc1cnc(C(=O)NCC2CCO2)cc1Cc1ccc(-n2cccn2)cc1 (stereo not shown) [Example 45, 5-methyl-N-(oxetan-2-ylmethyl)-4-[4-(1H-pyrazol-1-yl)benzyl]pyridine-2-carboxamide]
28 | 3.5 | Cc1cnc(C(=O)NC2CCC(F)(F)C2)cc1Cc1ccc(-n2cccn2)cc1 (stereo not shown) [Example 48, N-(3,3-difluorocyclopentyl)-5-methyl-4-[4-(1H-pyrazol-1-yl)benzyl]pyridine-2-carboxamide]
